From PubChem BioAssay AID180 (DTP/NCI, 2004)
Where “and” joins values, the source holds several entries; their conditions need not be identical. Equal entries are not always repeated.

System: BDF1 mice, Adenocarcinoma 755 s.c., tumor weight T/C
Test: NCI In Vivo Anticancer Drug Screen. Data for tumor model Adenocarcinoma 755 (subcutaneous) in B6D2F1 (BDF1) mice
Conditions: endpoint: mean tumor weight, higher = larger tumour
Procedure: The antitumor activity of compounds was measured in mice bearing transplantable tumors. Survival or tumor size were measured and the results are expressed as the measurement made in the treated group (T) divided by the measurement made in the vehicle treated control group (C). The tumor model used in this assay is Adenocarcinoma 755 (subcutaneous) in B6D2F1 (BDF1) mice

[1] = dose: 12.5 mg/kg/injection, schedule: Q01DX011 (ip), vehicle: methylcellulose (MC)
[2] = dose: 25.0 mg/kg/injection, schedule: Q01DX011 (ip), vehicle: methylcellulose (MC)
[3] = dose: 50.0 mg/kg/injection, schedule: Q01DX011 (ip), vehicle: methylcellulose (MC)
[4] = dose: 75.0 mg/kg/injection, schedule: Q01DX011 (ip), vehicle: methylcellulose (MC)
[5] = dose: 100.0 mg/kg/injection, schedule: Q01DX011 (ip), vehicle: methylcellulose (MC)
[6] = dose: 150.0 mg/kg/injection, schedule: Q01DX011 (ip), vehicle: methylcellulose (MC)
[7] = dose: 30.0 mg/kg/injection, schedule: Q01DX011 (ip), vehicle: carboxymethylcellulose (CMC)
[8] = dose: 60.0 mg/kg/injection, schedule: Q01DX011 (ip), vehicle: carboxymethylcellulose (CMC)
[9] = dose: 50.0 mg/kg/injection, schedule: Q01DX011 (ip), vehicle: carboxymethylcellulose (CMC)
[10] = dose: 3.7 mg/kg/injection, schedule: Q01DX011 (ip), vehicle: carboxymethylcellulose (CMC)
[11] = dose: 7.5 mg/kg/injection, schedule: Q01DX011 (ip), vehicle: carboxymethylcellulose (CMC)
[12] = dose: 15.0 mg/kg/injection, schedule: Q01DX011 (ip), vehicle: carboxymethylcellulose (CMC)

CC(C)Cn1cnc2c(SCc3ccc(Cl)cc3Cl)nc(N)nc21
T/C (dose: 9.0 mg/kg/injection, schedule: Q01DX011 (ip), vehicle: other): 78 % of control | T/C [1]: 41 % of control | T/C (dose: 18.0 mg/kg/injection, schedule: Q01DX011 (ip), vehicle: other): 78 % of control | T/C [2]: 65 % of control | T/C (dose: 37.0 mg/kg/injection, schedule: Q01DX011 (ip), vehicle: other): 92 % of control | T/C (dose: 38.0 mg/kg/injection, schedule: Q01DX011 (ip), vehicle: methylcellulose (MC)): 74 % of control | T/C [3]: 87 % of control | T/C [4]: 113 % of control | T/C [5]: 69 % of control | T/C [6]: 80 % of control | T/C (dose: 200.0 mg/kg/injection, schedule: Q01DX011 (ip), vehicle: other): 7 % of control and 15 % of control | T/C (dose: 300.0 mg/kg/injection, schedule: Q01DX011 (ip), vehicle: methylcellulose (MC)): 59 % of control | T/C (dose: 400.0 mg/kg/injection, schedule: Q01DX011 (ip), vehicle: other): 24 % of control | T/C (dose: 600.0 mg/kg/injection, schedule: Q01DX011 (ip), vehicle: methylcellulose (MC)): 91 % of control

Cn1c(=O)c2cc[nH]c2n(C)c1=O
T/C [7]: 87 % of control | T/C [8]: 100 % of control

O=NN1CCN(N=O)CC1
T/C (dose: 6.21 mg/kg/injection, schedule: Q01DX011 (ip), vehicle: carboxymethylcellulose (CMC)): 76 % of control | T/C (dose: 7.36 mg/kg/injection, schedule: Q01DX011 (ip), vehicle: carboxymethylcellulose (CMC)): 69 % of control | T/C (dose: 11.75 mg/kg/injection, schedule: Q01DX011 (ip), vehicle: carboxymethylcellulose (CMC)): 98 % of control and 78 % of control | T/C (dose: 12.43 mg/kg/injection, schedule: Q01DX011 (ip), vehicle: carboxymethylcellulose (CMC)): 85 % of control | T/C (dose: 14.72 mg/kg/injection, schedule: Q01DX011 (ip), vehicle: carboxymethylcellulose (CMC)): 101 % of control | T/C (dose: 18.8 mg/kg/injection, schedule: Q01DX011 (ip), vehicle: carboxymethylcellulose (CMC)): 157 % of control | T/C (dose: 23.5 mg/kg/injection, schedule: Q01DX011 (ip), vehicle: carboxymethylcellulose (CMC)): 69 % of control and 83 % of control | T/C (dose: 23.56 mg/kg/injection, schedule: Q01DX011 (ip), vehicle: carboxymethylcellulose (CMC)): 88 % of control | T/C (dose: 24.85 mg/kg/injection, schedule: Q01DX011 (ip), vehicle: carboxymethylcellulose (CMC)): 56 % of control | T/C (dose: 29.45 mg/kg/injection, schedule: Q01DX011 (ip), vehicle: carboxymethylcellulose (CMC)): 99 % of control and 100 % of control | T/C (dose: 31.33 mg/kg/injection, schedule: Q01DX011 (ip), vehicle: carboxymethylcellulose (CMC)): 57 % of control | T/C (dose: 39.26 mg/kg/injection, schedule: Q01DX011 (ip), vehicle: carboxymethylcellulose (CMC)): 67 % of control | T/C (dose: 40.0 mg/kg/injection, schedule: Q01DX011 (ip), vehicle: carboxymethylcellulose (CMC)): 99 % of control | T/C (dose: 45.0 mg/kg/injection, schedule: Q01DX011 (ip), vehicle: carboxymethylcellulose (CMC)): 100 % of control | T/C [9]: 86 % of control | T/C (dose: 55.0 mg/kg/injection, schedule: Q01DX011 (ip), vehicle: carboxymethylcellulose (CMC)): 102 % of control

O=C(O)C(=O)c1ccc(-c2ccccc2)cc1
T/C [10]: 99 % of control | T/C [11]: 100 % of control | T/C [12]: 87 % of control

Cn1c(=O)c2[nH]cnc2n(C)c1=O
T/C (dose: 14.5 mg/kg/injection, schedule: Q01DX011 (ip), vehicle: carboxymethylcellulose (CMC)): 85 % of control | T/C (dose: 18.25 mg/kg/injection, schedule: Q01DX011 (ip), vehicle: carboxymethylcellulose (CMC)): 68 % of control | T/C (dose: 19.87 mg/kg/injection, schedule: Q01DX011 (ip), vehicle: carboxymethylcellulose (CMC)): 80 % of control | T/C (dose: 29.0 mg/kg/injection, schedule: Q01DX011 (ip), vehicle: carboxymethylcellulose (CMC)): 44 % of control | T/C (dose: 36.5 mg/kg/injection, schedule: Q01DX011 (ip), vehicle: carboxymethylcellulose (CMC)): 92 % of control | T/C (dose: 39.74 mg/kg/injection, schedule: Q01DX011 (ip), vehicle: carboxymethylcellulose (CMC)): 52 % of control | T/C (dose: 63.0 mg/kg/injection, schedule: Q01DX011 (ip), vehicle: carboxymethylcellulose (CMC)): 86 % of control | T/C (dose: 77.33 mg/kg/injection, schedule: Q01DX011 (ip), vehicle: carboxymethylcellulose (CMC)): 53 % of control and 72 % of control | T/C (dose: 79.48 mg/kg/injection, schedule: Q01DX011 (ip), vehicle: carboxymethylcellulose (CMC)): 53 % of control | T/C (dose: 116.0 mg/kg/injection, schedule: Q01DX011 (ip), vehicle: carboxymethylcellulose (CMC)): 75 % of control | T/C (dose: 158.97 mg/kg/injection, schedule: Q01DX011 (ip), vehicle: carboxymethylcellulose (CMC)): 60 % of control

Nc1ncnc2c1ncn2CCO
T/C [2]: 52 % of control | T/C [3]: 76 % of control | T/C [5]: 67 % of control

CC1(C)C(=O)CC[C@@]2(C)C1=CC[C@@H]1[C@@H]2CC[C@@]2(C)[C@H]1CC[C@]2(C)O
T/C (dose: 25.0 mg/kg/injection, schedule: Q01DX011 (sc), vehicle: steriod suspending solution): 105 % of control | T/C (dose: 200.0 mg/kg/injection, schedule: Q01DX011 (sc), vehicle: steriod suspending solution): 92 % of control | T/C (dose: 400.0 mg/kg/injection, schedule: Q01DX011 (sc), vehicle: steriod suspending solution): 87 % of control

CC(C)Cn1cnc2c(SCc3ccccc3F)nc(N)nc21
T/C (dose: 18.75 mg/kg/injection, schedule: Q01DX011 (ip), vehicle: methylcellulose (MC)): 80 % of control | T/C (dose: 37.5 mg/kg/injection, schedule: Q01DX011 (ip), vehicle: methylcellulose (MC)): 65 % of control | T/C [6]: 28 % of control

C=CC(=O)NCNC(=O)CCBr
T/C (dose: 12.5 mg/kg/injection, schedule: Q01DX011 (ip), vehicle: carboxymethylcellulose (CMC)): 62 % of control | T/C (dose: 25.0 mg/kg/injection, schedule: Q01DX011 (ip), vehicle: carboxymethylcellulose (CMC)): 34 % of control | T/C [9]: 1 % of control

CC1CCC(n2cnc3c(=S)nc[nH]c32)O1 (stereo unspecified)
T/C (dose: 1.8 mg/kg/injection, schedule: Q01DX011 (ip), vehicle: carboxymethylcellulose (CMC)): 86 % of control | T/C [10]: 12 % of control | T/C [11]: 3 % of control | T/C [12]: 3 % of control

CCN(CC)CCNc1ccc(C)c2sc3ccccc3c(=O)c12
T/C [1]: 73 % of control | T/C (dose: 12.93 mg/kg/injection, schedule: Q01DX011 (ip), vehicle: carboxymethylcellulose (CMC)): 98 % of control | T/C [2]: 51 % of control | T/C (dose: 25.87 mg/kg/injection, schedule: Q01DX011 (ip), vehicle: carboxymethylcellulose (CMC)): 117 % of control | T/C (dose: 25.88 mg/kg/injection, schedule: Q01DX011 (ip), vehicle: carboxymethylcellulose (CMC)): 73 % of control | T/C (dose: 32.35 mg/kg/injection, schedule: Q01DX011 (ip), vehicle: carboxymethylcellulose (CMC)): 75 % of control | T/C (dose: 43.13 mg/kg/injection, schedule: Q01DX011 (ip), vehicle: carboxymethylcellulose (CMC)): 49 % of control | T/C [3]: 35 % of control | T/C (dose: 51.75 mg/kg/injection, schedule: Q01DX011 (ip), vehicle: carboxymethylcellulose (CMC)): 44 % of control and 46 % of control and 59 % of control | T/C (dose: 59.1 mg/kg/injection, schedule: Q01DX011 (ip), vehicle: carboxymethylcellulose (CMC)): 15 % of control | T/C (dose: 64.7 mg/kg/injection, schedule: Q01DX011 (ip), vehicle: carboxymethylcellulose (CMC)): 23 % of control | T/C (dose: 82.8 mg/kg/injection, schedule: Q01DX011 (ip), vehicle: carboxymethylcellulose (CMC)): 7 % of control | T/C [5]: 1 % of control | T/C (dose: 103.5 mg/kg/injection, schedule: Q01DX011 (ip), vehicle: carboxymethylcellulose (CMC)): 5 % of control | T/C (dose: 1617.5 micrograms/kg/injection, schedule: Q01DX011 (ip), vehicle: carboxymethylcellulose (CMC)): 70 % of control | T/C (dose: 3235.0 micrograms/kg/injection, schedule: Q01DX011 (ip), vehicle: carboxymethylcellulose (CMC)): 38 % of control | T/C (dose: 6470.0 micrograms/kg/injection, schedule: Q01DX011 (ip), vehicle: carboxymethylcellulose (CMC)): 15 % of control | T/C (dose: 8087.0 micrograms/kg/injection, schedule: Q01DX011 (ip), vehicle: carboxymethylcellulose (CMC)): 72 % of control

Cn1c(N)nc2c(ncn2C2CC(O)C(CO)O2)c1=O (stereo unspecified)
T/C [7]: 109 % of control | T/C [8]: 82 % of control | T/C (dose: 120.0 mg/kg/injection, schedule: Q01DX011 (ip), vehicle: carboxymethylcellulose (CMC)): 89 % of control

Cc1ccc2c(c1)CCCN2C(=O)CCCl
T/C [2]: 101 % of control | T/C [4]: 40 % of control | T/C (dose: 225.0 mg/kg/injection, schedule: Q01DX011 (ip), vehicle: methylcellulose (MC)): 60 % of control
